Reference: patent US4109081A, “1-(3,5-Disubstituted-2,4,6-triiodophenyl)-3-(polyhydroxy-alkyl)urea compounds” (Mallinckrodt, Inc., priority 1975, dated 1978)
In brackets after ≈: the same amount, converted by molar mass. Like-named read-outs stand apart in the source and are kept apart here.

Tests used:
[1] = aqueous solubility (solubility of the product in water); assay type: physicochemical
Swiss Albino mice [2] = assay: Acute Intravenous Toxicity Studies in Mice; assay type: in vivo, mouse (Swiss Albino, Charles River); details: lateral tail vein, iodine concentration 28.2%, pH 7.0-7.2, approximately 1 ml./min., seven day observation
Experimental: (§1) carried out in aqueous solutions of the compounds of Examples IV and V.
Swiss Albino mice (Charles River) were dosed in the lateral tail vein with aqueous solutions of the above-noted iodinated compounds of Examples I, II and III having an iodine concentration of 28.2% with a pH of 7.0-7.2. The solutions were injected at the rate of approximately 1 ml./min. […] The LD50 values were calculated by the method of Litchfield and Wilcoxon (J. of Pharmac. and Exptl. Therap. 96: 99-113, 1949).

Sprague-Dawley rats = assay: Intracisternal Toxicity in Rats; assay type: in vivo, rat (Sprague-Dawley, Carworth); details: two day observation, Example IV at 7.43% iodine, Example V at 13.3% iodine
Source text: as §1
Sprague-Dawley (Carworth) rats were used. In the case of the compound of Example IV, a solution of the compound having an iodine concentration of 7.43% was employed and in the case of the compound of Example V, a solution of the compound having an iodine concentration of 13.3% was employed. The method used was a variation of the procedure outlined by Melartin et al. (Invest. Rad. 5: 13-21, 1970). After dosing, the animals were housed individually and observed for immediate reactions and periodically for a two day observation period. The LD50 values were calculated according to the method of Litchfield and Wilcoxon (J. of Pharmac. and Exptl. Therap. 96:99-115, 1949).

dogs = assay: intravenous pyelographic studies in dogs; assay type: in vivo, dog; details: for visualization of kidneys, ureters and urinary bladder: 140 mg. I/kg., dogs
Experimental: The compounds of Examples I, II and III were employed in intravenous pyelographic studies carried out in dogs. At a dosage of 140 mg. […] At a dosage of 167 mg.

Swiss Albino mice [3] = assay: Intracerebral Toxicity in Mice; assay type: in vivo, mouse (Swiss Albino, Charles River); details: intracerebral injection, seven day observation; Example IV at 4.3% iodine, Example V at 13.3% iodine
Experimental: as §1
Swiss Albino mice (charles River) were used. Fixed volumes of aqueous solutions of the iodinated compounds were injected intracerebrally via a 27 gauge needle (1/4 inch in length) according to the method of Haley et al. (Br. J. of Pharmac. 12:12-15, 1957). In the case of the compound of Example IV, a solution of the compound having an iodine concentration of 4.3% was employed and in the case of the compound of Example V, a solution of the compound having an iodine concentration of 13.3% was employed. The animals were observed immediately following injections and daily throughout a seven day observation period. The LD50 values were calculated by the method of Litchfield and Wilcoxon (J. of Pharmac. and Exptl. Therap. 96:99-113, 1949).

[4] = water, read-out: solubility of the product in water

Row | Structure (SMILES) | LD50 I.V. (Mice) (Swiss Albino mice [2]) | solubility [1, 4] | LD50 Intracisternal (Rats) (Sprague-Dawley rats) | LD50 Intracerebral (Mice) (Swiss Albino mice [3]) | other results
1 | COc1c(I)cc(I)c(NC(=O)N(C)C[C@H](O)[C@@H](O)[C@H](O)[C@H](O)CO)c1I [3-[3-methoxy-2,4,6-triiodophenyl]-1-methyl-1-(D-gluco-2,3,4,5,6-pentahydroxyhexyl)urea, reference compound] | – | – | – | – | solubility ([1]; insufficiently water-soluble for toxicity testing in aqueous solution, read-out: water solubility): < 10 mg/mL
2 | CNC(=O)c1c(I)c(NC(=O)N(C)C[C@H](O)[C@@H](O)[C@H](O)[C@H](O)CO)c(I)c(C(=O)N(C)C)c1I [Example I, 3-[3-(N,N-Dimethylcarbamyl)-2,4,6-triiodo-5-(N-methylcarbamyl)phenyl]-1-methyl-1-(D-gluco-2,3,4,5,6-pentahydroxylhexyl)urea] | 1,878 mg. I/kg. body wt. | ≥ 1000 mg/mL | 21 mg. I/kg. body wt. | 1,500 mg. I/kg. body wt. | visualization of kidneys, ureters and urinary bladder (dogs; five minutes after injection): good visualization of kidneys, ureters and urinary bladder
3 | CNC(=O)c1c(I)c(NC(=O)N[C@@H](C=O)[C@@H](O)[C@H](O)[C@H](O)CO)c(I)c(N(C)C(C)=O)c1I [Example III, 5-{3-[2-(D-Gluco-2-deoxy-3,4,5,6-tetrahydroxy-1-oxohexyl)]ureido}-2,4,6-triiodo-N-methyl-3-(N-methylacetamido)-benzamide] | 6,800 mg. I/kg. body wt. | ≥ 1000 mg/mL | < 40 mg. I/kg. body wt. | 1,460 mg. I/kg. body wt. | visualization of the kidneys and ureters (dogs; 167 mg. I/kg., five minutes after injection, dog): better visualization of the kidneys with some visualization of the ureters; visualization of the kidney (dogs; 167 mg. I/kg., one minute after injection, dog): a shadow of the kidney
4 | CNC(=O)c1c(I)c(NC(=O)N[C@@H](C=O)[C@@H](O)[C@H](O)[C@H](O)CO)c(I)c(C(=O)N(C)C)c1I [Example II] | 4,817 mg. I/kg. body wt. | ≥ 1000 mg/mL | 17 mg. I/kg. body wt. | 1,720 mg. I/kg. body wt. | visualization of kidneys, ureters and urinary bladder (dogs; five minutes after injection): good visualization of kidneys, ureters and urinary bladder
5 | CNC(=O)c1c(I)c(NC(C)=O)c(I)c(NC(=O)N[C@@H](C=O)[C@@H](O)[C@H](O)[C@H](O)CO)c1I [Example IV] | – | 180 to 200 mg/mL (≈ 228 to 253 mM) | 62 mg. I/kg. body wt. | > 350 mg. I/kg. body wt. | –
6 | CNC(=O)c1c(I)c(NC(=O)N[C@@H](C=O)[C@@H](O)[C@H](O)[C@H](O)CO)c(I)c(C(=O)NC)c1I [Example V, 5-{3-[2-(D-gluco-2-deoxy-3,4,5,6-tetrahydroxy-1-oxohexyl)]ureido}-2,4,6-tri-iodo-N,N'-dimethylisophthalamide] | – | – | > 266 mg. I/kg. body wt. | > 899 mg. I/kg. body wt. | solubility ([1]; water, depending upon the method employed, read-out: aqueous solubility): 27 to 80 mg/mL (≈ 34.2 to 101 mM)
7 | CNC(=O)c1c(I)c(NC(=O)N[C@@H](CO)[C@@H](O)[C@H](O)[C@H](O)CO)c(I)c(N(CCO)C(C)=O)c1I [Example VI, 3-{3-[1-(D-gluco-2-deoxy-1,3,4,5,6-pentahydroxyhexyl)]ureido}-5-[N-(2-hydroxyethyl)acetamido]-2,4,6-triiodo-N-methylbenzamide] | – | – | – | – | solubility ([1]; water, read-out: water solubility): ~780 mg/mL (≈ 933 mM)
